Laboratory results: US20250134874A1, “PHARMACEUTICAL FORMULATIONS COMPRISING 3-({[(4R)-7-{METHYL[4-(PROPAN-2-YL)PHENYL]AMINO}-3,4-DIHYDRO-2H-1-BENZOPYRAN-4-YL]METHYL}AMINO)PYRIDINE-4-CARBOXYLIC ACID” (TACHYON THERAPEUTICS, INC., priority 2021, published 2025)
Like-named read-outs stand apart in the source and are kept apart here.

Experiment: Sink condition: solubility of API in DI water and SGF
Type: physicochemical
Conditions: for solubility: thermodynamic from solid, read-out: Final Concentration
Protocol: • 1. 5 mg of API was placed into a glass vial. • 2. Added 0.2 mL of diluent (DI water and SGF) into the vial, then sonicate and vortex to dissolve the API. • 3. If the solution is not clear after 5 minutes, add additional 0.2 mL of diluent into the vial, then sonicate and vortex to dissolve the API. • 4. Repeat step 4 till all API is dissolved. • 5. Calculate the final concentration of API and the maximum dissolvable dose used in dissolution test.

**Q.** For `CC(C)c1ccc(N(C)c2ccc3c(c2)OCC[C@H]3CNc2cnccc2C(=O)O)cc1` [Compound 1, 3-({[(4R)-7-{methyl[4-(propan-2-yl)phenyl]amino}-3,4-dihydro-2H-1-benzopyran-4-yl]methyl}amino)pyridine-4-carboxylic acid], which “Maximum dissolvable dose used in dissolution test” value (diluent DI water) is on record?
**A.** The value was 717 mg.

**Q.** What about the “Maximum dissolvable dose used in dissolution test” value (diluent SGF) of the same compound?
**A.** The value was 617 mg.

**Q.** What about the solubility (simulated gastric fluid, diluent SGF) of the same compound?
**A.** Its solubility is ≥ 3700 µg/mL.

**Q.** And the solubility (diluent DI water)?
**A.** Its solubility is ≥ 4300 µg/mL.
